From PMC6197744, “Triazolo[4,5-d]pyrimidines as Validated General Control Nonderepressible 2 (GCN2) Protein Kinase Inhibitors Reduce Growth of Leukemia Cells” (Computational and Structural Biotechnology Journal, 2018)

What was measured:
Assay in all cases: NCI-60 one-dose screen
Type in all cases: cell-based
SN12C = details: Homo sapiens, Renal SN12C, 48 h, read-out: Percent growth inhibition
Method: (§1) Compounds 1 and 2 were submitted to the National Cancer Institute NCI-60 Tumor Cell Screening Program (NCI number 800,700 and 800,701, respectively) for evaluation against the 60 cell line NCI panel at a single dose of 10 μM. […] Leukemia and breast cancer cell lines comprised the only cancer groups that were uniformly sensitive to both 1 and 2, with the greatest sensitivity seen in the leukemia SR cell line.
(§2) Compounds 1 and 2 were submitted to the NCI for growth inhibition screening against its panel of 60 cancer cell lines. The NCI screening protocol has extensively been described [[53], [54], [55], [56]]. Briefly, cancerous cell lines were grown in RPMI 1640 medium containing 5% fetal bovine serum and 2 mM L-glutamine. Depending on the doubling time of each cell line, 5000–40,000 cells were seeded in 96-well plates for 24 h. Cells were then treated with compounds 1 or 2 at a concentration of 10 μM and incubated for 48 h at 37 °C in a humidified atmosphere containing 5% CO2. The cells were then fixed and stained with sulforhodamine B (SRB) to determine their viability. The data were analyzed using a program called COMPARE to determine the percent growth inhibition of each compound.

COLO205 = details: Homo sapiens, COLO 205; Colon COLO205, 10 μM, 48 h; read-out: Percent growth inhibition
Method: as §1, §2

NCI-H460 = details: Homo sapiens; Non-Small Cell Lung NCI-H460, 10 μM, 48 h; read-out: Percent growth inhibition
Method: as §1, §2

SW-620 = details: Homo sapiens; Colon SW-620, 10 μM, 48 h; read-out: Percent growth inhibition
Method: as §1, §2

HCT-15 = details: Homo sapiens; Colon HCT-15, 10 μM, 48 h; read-out: Percent growth inhibition
Method: as §1, §2

SK-OV-3 = details: Homo sapiens, SK-OV-3, 48 h, Ovarian SK-OV-3, 10 μM, read-out: Percent growth inhibition
Method: as §1, §2

SNB-19 = details: Homo sapiens; CNS SNB-19, 10 μM, 48 h; read-out: Percent growth inhibition
Method: as §1, §2

M14 = details: Homo sapiens; Melanoma M14, 10 μM, 48 h; read-out: Percent growth inhibition
Method: as §1, §2

A498 = details: Homo sapiens; Renal A498, 10 μM, 48 h; read-out: Percent growth inhibition
Method: as §1, §2

NCI-H322M = details: Homo sapiens, Non-Small Cell Lung NCI-H322M, 48 h, read-out: Percent growth inhibition
Method: as §1, §2

EKVX = details: Homo sapiens, Non-Small Cell Lung EKVX, 48 h, read-out: Percent growth inhibition
Method: as §1, §2

CAKI-1 = details: Homo sapiens; Renal CAKI-1, 10 μM, 48 h; read-out: Percent growth inhibition
Method: as §1, §2

OVCAR-8 = details: Homo sapiens; Ovarian OVCAR-8, 10 μM, 48 h; read-out: Percent growth inhibition
Method: as §1, §2

T-47D = details: Homo sapiens, T47D, Breast T-47D, 48 h, read-out: Percent growth inhibition
Method: as §1, §2

NCI/ADR-RES = details: Homo sapiens, Ovarian NCI/ADR-RES, 48 h, read-out: Percent growth inhibition
Method: as §1, §2

UO-31 = details: Homo sapiens; Renal UO-31, 10 μM, 48 h; read-out: Percent growth inhibition
Method: as §1, §2

NCI-H226 = details: Homo sapiens, NCI-H226, 48 h, Non-Small Cell Lung NCI-H226, 10 μM, read-out: Percent growth inhibition
Method: as §1, §2

SF-295 = details: Homo sapiens; CNS SF-295, 10 μM, 48 h; read-out: Percent growth inhibition
Method: as §1, §2

OVCAR-3 = details: Homo sapiens; Ovarian OVCAR-3, 10 μM, 48 h; read-out: Percent growth inhibition
Method: as §1, §2

HT29 = details: Homo sapiens, HT-29, 48 h, Colon HT29, 10 μM, read-out: Percent growth inhibition
Method: as §1, §2

MDA-MB-435 = details: Homo sapiens; Melanoma MDA-MB-435, 10 μM, 48 h; read-out: Percent growth inhibition
Method: as §1, §2

KM12 = details: Homo sapiens; Colon KM12, 10 μM, 48 h; read-out: Percent growth inhibition
Method: as §1, §2

HOP-62 = details: Homo sapiens; Non-Small Cell Lung HOP-62, 10 μM, 48 h; read-out: Percent growth inhibition
Method: as §1, §2

HCC-2998 = details: Homo sapiens; Colon HCC-2998, 10 μM, 48 h; read-out: Percent growth inhibition
Method: as §1, §2

HOP-92 = details: Homo sapiens; Non-Small Cell Lung HOP-92, 10 μM, 48 h; read-out: Percent growth inhibition
Method: as §1, §2

MDA-MB-231 = details: Homo sapiens; Breast MDA-MB-231, 10 μM, 48 h; read-out: Percent growth inhibition
Method: as §1, §2

LOXIMVI = details: Homo sapiens, LOX IMVI, Melanoma LOXIMVI, 48 h, read-out: Percent growth inhibition
Method: as §1, §2

RXF393 = details: Homo sapiens, RXF 393; Renal RXF393, 10 μM, 48 h; read-out: Percent growth inhibition
Method: as §1, §2

TK-10 = details: Homo sapiens; Renal TK-10, 10 μM, 48 h; read-out: Percent growth inhibition
Method: as §1, §2

With CCn1cc(Nc2ncc3nnn(-c4ccc(C(=O)OC)cc4)c3n2)cn1 [Compound 1, Methyl 4-(5-((1-ethyl-1H-pyrazol-4-yl)amino)-3H-[1,2,3]triazolo[4,5-d]pyrimidin-3-yl)benzoate] the inhibition at 10 µM (SN12C) was 1.94%, the inhibition at 10 µM (COLO205) was 16.3% and the inhibition at 10 µM (NCI-H460) was 0.26%. For the same molecule, the inhibition at 10 µM (SW-620) was -5.07%, the inhibition at 10 µM (HCT-15) was 11.2% and the inhibition at 10 µM (SK-OV-3) was 22%. It also gave an inhibition at 10 µM (SNB-19) of -9.34%, an inhibition at 10 µM (M14) of 17% and an inhibition at 10 µM (A498) of 10.5%. For the same molecule, the inhibition at 10 µM (NCI-H322M) was -3.7%, the inhibition at 10 µM (EKVX) was -4.33% and the inhibition at 10 µM (CAKI-1) was 1.59%. The inhibition at 10 µM (OVCAR-8) was 13.8%, the inhibition at 10 µM (T-47D) was 25.8% and the inhibition at 10 µM (NCI/ADR-RES) was -8.6%. The inhibition at 10 µM (UO-31) was 10.4%, the inhibition at 10 µM (NCI-H226) was 34.6% and the inhibition at 10 µM (SF-295) was -2.41%. It also gave an inhibition at 10 µM (OVCAR-3) of 8.48%, an inhibition at 10 µM (HT29) of 47% and an inhibition at 10 µM (MDA-MB-435) of 9.99%. It also gave an inhibition at 10 µM (KM12) of 7.33%, an inhibition at 10 µM (HOP-62) of 21.1% and an inhibition at 10 µM (HCC-2998) of -3.6%. It also gave an inhibition at 10 µM (HOP-92) of -8.76%, an inhibition at 10 µM (MDA-MB-231) of 0.42% and an inhibition at 10 µM (LOXIMVI) of 34.9%. For the same molecule, the inhibition at 10 µM (RXF393) was -4.13% and the inhibition at 10 µM (TK-10) was 6.48%.

In the case of CCOc1ccc(-n2nnc3cnc(Nc4cnn(CC)c4)nc32)cc1 [Compound 2, 3-(4-Ethoxyphenyl)-N-(1-ethyl-1H-pyrazol-4-yl)-3H-[1,2,3]triazolo[4,5-d]pyrimidin-5-amine], the inhibition at 10 µM (SN12C) is reported as 12.5%, the inhibition at 10 µM (COLO205) is reported as 29.9% and the inhibition at 10 µM (NCI-H460) is reported as 5.14%. The inhibition at 10 µM (SW-620) was -17.3%, the inhibition at 10 µM (HCT-15) was 0.66% and the inhibition at 10 µM (SK-OV-3) was 46.3%. The inhibition at 10 µM (SNB-19) was -0.19%, the inhibition at 10 µM (M14) was 10.9% and the inhibition at 10 µM (A498) was 44.1%. The inhibition at 10 µM (NCI-H322M) was -5.07%, the inhibition at 10 µM (EKVX) was -5.32% and the inhibition at 10 µM (CAKI-1) was 0.05%. For the same molecule, the inhibition at 10 µM (OVCAR-8) was 21.2%, the inhibition at 10 µM (T-47D) was 20.7% and the inhibition at 10 µM (NCI/ADR-RES) was 1.5%. It also gave an inhibition at 10 µM (UO-31) of 3.24%, an inhibition at 10 µM (NCI-H226) of 46.3% and an inhibition at 10 µM (SF-295) of 3.75%. The inhibition at 10 µM (OVCAR-3) was 6.71%, the inhibition at 10 µM (HT29) was 39.7% and the inhibition at 10 µM (MDA-MB-435) was 20%. For the same molecule, the inhibition at 10 µM (KM12) was 25.9%, the inhibition at 10 µM (HOP-62) was 15.7% and the inhibition at 10 µM (HCC-2998) was -2.67%. For the same molecule, the inhibition at 10 µM (HOP-92) was -5.76%, the inhibition at 10 µM (MDA-MB-231) was 7.57% and the inhibition at 10 µM (LOXIMVI) was 45.7%. The inhibition at 10 µM (RXF393) was 43.8% and the inhibition at 10 µM (TK-10) was 1.47%.
